Experimental data reported in patent publication US20050026982A1, “Composition that consists of alkanedicarboxylic acids and a pharmaceutical active ingredient” (priority 2003, published 2005).
Entries after “also recorded” stand apart in the source; their conditions may differ. Marks after values point to notes of the source that are not given here.

Test system: croton-oil-inflamed mouse skin
Experiment: Croton oil-induced inflammation on the mouse ear (irritative contact dermatitis model), leukocyte infiltration of the skin
Type: in vivo
Conditions: metronidazole 0.75%; for Inhibition [%] of the Skin Infiltration of Granulocytes & Monocytes (Myelo-Peroxidase Activity) / Inhibition [%] of the Skin Infiltration of Neutrophilic (Elastase Activity): croton oil dissolving-out on mouse ear, inhibition vs croton oil + vehicle treatment, azelaic acid 20%, methylprednisolone 0.1%, ethanol/isopropyl myristat; for Therapeutic effect in the inflammation model in comparison to the vehicle (peroxidase and elastase activity in the skin): azelaic acid 20% in ethanol/isopropyl myristat
Source text: The induction of an inflammatory reaction (irritative contact dermatitis) is a common model for pharmacological evaluation of the anti-inflammatory potential of topically or systemically administered test substances (Trancik and Lowe (1985) Evaluation of Topical Nonsteroidal Anti-Inflammatory Agents, Models in Dermatology, H. Maibach and N. J. Lowe. Basel, Karger: 35-42). It has proven effective, i.a., in the testing of non-steroidal antiphlogistic agents as well as in glucocorticoid steroids and is regarded as the most reproducible in-vivo test for the evaluation of topical anti-inflammatory substances (Lorenzetti (1975) Animal to Clinical Correlation of Topical Anti-Inflammatory Efficacy. Animal Models in Dermatology. H. Maibach. Basel Karger: 212-225).
The application of the phorbol ester croton oil to mouse ears results in an acute, inflammatory reaction with edema and immigration of primarily polymorphonuclear granulocytes that reaches its maximum within 24 hours. In this connection, test substances can be administered either preventively (i.e., before administration of the inflammatory stimuli) or simultaneously with croton oil. The croton oil-induced inflammation on the mouse ear is not only a model of irritative and/or allergic contact dermatitis, but also other skin diseases that are associated with a high inflammation and immigration of granulocytes. These include psoriasis, atopic dermatis, common acne and the inflammatory stage of rosacea.
Rosacea is a disease of unknown etiology that is considered by many authors to be in the acne group and is generated on the latter and can remove the latter over the course of time. The disease is divided into three stages, of which in particular Rosacea II and III are characterized by inflammatory nodules, nodes, and patches. A leukocytic infiltrate is found by histology (Braun-Falco et al. (1995) Dermatologie und Venerologie. Heidelberg, Springer). Because of the inflammatory components of these stages with leukocyte infiltration of the skin, the croton oil model reflects aspects of this disease.
The activity included, i.a., the immigrations of leukocytes, measured as peroxidase activity in the skin, as well as the immigration of neutrophilic granulocytes, measured as elastase activity in the skin (Table 1).

SMILES | Inhibition [%] of the Skin Infiltration of Granulocytes & Monocytes (Myelo-Peroxidase Activity) | Inhibition [%] of the Skin Infiltration of Neutrophilic (Elastase Activity) | Therapeutic effect in the inflammation model in comparison to the vehicle (peroxidase and elastase activity in the skin)
O=C(O)CCCCCCCC(=O)O [Azelaic Acid, azelaic acid] | 21 (n.s.)* % | 11 (n.s.)* % | did not show such high, therapeutic effects; also recorded: do not show such high, therapeutic effects
C[C@H]1C[C@@H]2[C@H]([C@@H](O)C[C@@]3(C)[C@H]2CC[C@]3(O)C(=O)CO)[C@@]2(C)C=CC(=O)C=C12 [Methylprednisolone] | 90 (p < 0.05)* % | 95 (p < 0.05)* % | –
Cc1ncc([N+](=O)[O-])n1CCO [Metroidazole, 1-(2-hydroxyethyl)-2-methyl-5-nitroimidazole] | 9 (n.s.)* % | 18 (n.s.)* % | did not show such high, therapeutic effects; also recorded: do not show such high, therapeutic effects
